Laboratory results taken from US20250171498A1, “ANTIBIOTIC COMPOUNDS, FORMULATIONS AND METHODS OF USE” (UNIVERSITEIT LEIDEN, priority 2022, published 2025).
In brackets after ≈: the same amount, converted by molar mass. Where two headings read alike, the source gives them in different places. *1 amine or outer side, *2 acyl side, *3 side chain or, on linkers, in order; H or OH if unused. Where a SMILES comes first, the peptide text is derived from it. Bridges are numbered along the chain shown (N, C = ends). [ ]: non-standard residue; d: D form. The star is where a group is joined. X1 = CC(C)CCCCC[C@@H](N[*:1])C(=O)[*:2]; S(2-cyclohexylethyl) = C1CCC(CCS*)CC1; S(3-Cl-benzyl) = Clc1cccc(CS*)c1; S(3-Methylbutyl) = CC(C)CCS*; dDab = NCC[C@@H](N)C(=O)O; dDap = NC[C@@H](N)C(=O)O; Dab = NCC[C@H](N)C(=O)O; Dap = NC[C@H](N)C(=O)O

Columns and labels:
Assay type in all cases: cell-based
[1] = system: renal Proximal Tubular Epithelial Cells (PTECs); assay: Toxicity on renal Proximal Tubular Epithelial Cells
Protocol: (§1) Compounds were prepared according to scheme 2, 3, 4, 6, 7, or 8 above, preparing different sets of compounds with different substitution patterns. All polymyxin analogues prepared were tested for their anti-bacterial activity on relevant Gram-negative strains (Table B). Polymyxin B and PMBN were taken along as references. In addition, the toxicity on renal Proximal Tubular Epithelial Cells (PTECs) was evaluated.
(§2) 3rd Generation compounds were also subjected to testing for their anti-bacterial activity on relevant Gram-negative strains (Table C). Polymyxin B and PMBN were taken along as references. In addition, the toxicity on renal Proximal Tubular Epithelial Cells (PTECs) was evaluated, see Table C.

E. Coli (ATCC 25922) = system: E. Coli (ATCC 25922)
Protocol: as §1, §2

A. Baumanni (ATCC 19606) = system: A. Baumanni (ATCC 19606)
Protocol: as §1, §2

[2] = system: K. Pneumoniae (ATCC 13883)
Protocol: as §1, §2

[3] = system: P. Aeruginosa (ATCC 27853)
Protocol: as §1, §2

Molecule	PTEC Toxicity (relative to polymyxin B) [1]	MIC E. Coli (ATCC 25922) (E. Coli (ATCC 25922); ATCC 25922)	MIC A. Baumanni (ATCC 19606) (A. Baumanni (ATCC 19606); ATCC 19606)	MIC K. Pneumoniae (ATCC 13883) ([2]; ATCC 13883)	MIC P. Aeruginosa (ATCC 27853) ([3]; ATCC 27853)	PTEC Toxicity (relative to polymyxin B) ([1]; relative value, polymyxin B = 1)	MIC E. Coli (ATCC 25922) (E. Coli (ATCC 25922); strain ATCC 25922)	MIC A. Baumanni (ATCC 19606) (A. Baumanni (ATCC 19606); strain ATCC 19606)	MIC K. Pneumoniae (ATCC 13883) ([2]; strain ATCC 13883)	MIC P. Aeruginosa (ATCC 27853) ([3]; strain ATCC 27853)
CC(C)CCSSC[C@@H](N)C(=O)N[C@H](C(=O)N[C@@H](CCN)C(=O)N[C@H]1CCNC(=O)[C@H]([C@@H](C)O)NC(=O)[C@H](CCN)NC(=O)[C@H](CCN)NC(=O)[C@H](CC(C)C)NC(=O)[C@@H](Cc2ccccc2)NC(=O)[C@H](CCN)NC1=O)[C@@H](C)O [drawing 95] (H-[dC](S(3-Methylbutyl))T[Dab][Dab][Dab][dF]L[Dab][Dab]T; lactam 4-C)	4.7	1 µg/mL (≈ 0.856 µM)	1 µg/mL (≈ 0.856 µM)	0.5 µg/mL (≈ 0.428 µM)	1 µg/mL (≈ 0.856 µM)					
CC(C)C[C@@H]1NC(=O)[C@@H](Cc2ccccc2)NC(=O)[C@H](CCN)NC(=O)[C@@H](NC(=O)[C@@H](CN)NC(=O)[C@@H](NC(=O)[C@H](N)CSSCc2cccc(Cl)c2)[C@@H](C)O)CCNC(=O)[C@H]([C@@H](C)O)NC(=O)[C@H](CCN)NC(=O)[C@H](CCN)NC1=O (H-[dC](S(3-Cl-benzyl))T[dDap][Dab][Dab][dF]L[Dab][Dab]T; lactam 4-C)	5.7	2 µg/mL (≈ 1.65 µM)	0.5 µg/mL (≈ 0.414 µM)	0.5 µg/mL (≈ 0.414 µM)	1 µg/mL (≈ 0.827 µM)					
CC(C)C[C@@H]1NC(=O)[C@@H](Cc2ccccc2)NC(=O)[C@H](CCN)NC(=O)[C@@H](NC(=O)[C@H](CN)NC(=O)[C@@H](NC(=O)[C@H](N)CSSCc2cccc(Cl)c2)[C@@H](C)O)CCNC(=O)[C@H]([C@@H](C)O)NC(=O)[C@H](CCN)NC(=O)[C@H](CCN)NC1=O (H-[dC](S(3-Cl-benzyl))T[Dap][Dab][Dab][dF]L[Dab][Dab]T; lactam 4-C)	4.8	2 µg/mL (≈ 1.65 µM)	0.5 µg/mL (≈ 0.414 µM)	0.5 µg/mL (≈ 0.414 µM)	4 µg/mL (≈ 3.31 µM)					
CC(C)C[C@@H]1NC(=O)[C@@H](Cc2ccccc2)NC(=O)[C@H](CCN)NC(=O)[C@@H](NC(=O)[C@@H](CN)NC(=O)[C@@H](NC(=O)[C@H](N)CSSCCC2CCCCC2)[C@@H](C)O)CCNC(=O)[C@H]([C@@H](C)O)NC(=O)[C@H](CCN)NC(=O)[C@H](CCN)NC1=O (H-[dC](S(2-cyclohexylethyl))T[dDap][Dab][Dab][dF]L[Dab][Dab]T; lactam 4-C)	5.4	2 µg/mL (≈ 1.67 µM)	0.5 µg/mL (≈ 0.419 µM)	1 µg/mL (≈ 0.837 µM)	2 µg/mL (≈ 1.67 µM)					
CC(C)C[C@@H]1NC(=O)[C@@H](Cc2ccccc2)NC(=O)[C@H](CCN)NC(=O)[C@@H](NC(=O)[C@H](CN)NC(=O)[C@@H](NC(=O)[C@H](N)CSSCCC2CCCCC2)[C@@H](C)O)CCNC(=O)[C@H]([C@@H](C)O)NC(=O)[C@H](CCN)NC(=O)[C@H](CCN)NC1=O (H-[dC](S(2-cyclohexylethyl))T[Dap][Dab][Dab][dF]L[Dab][Dab]T; lactam 4-C)	2.9	1 µg/mL (≈ 0.837 µM)	0.5 µg/mL (≈ 0.419 µM)	1 µg/mL (≈ 0.837 µM)	2 µg/mL (≈ 1.67 µM)					
CC(C)CCSSC[C@@H](N)C(=O)N[C@H](C(=O)N[C@@H](CN)C(=O)N[C@H]1CCNC(=O)[C@H]([C@@H](C)O)NC(=O)[C@H](CCN)NC(=O)[C@H](CCN)NC(=O)[C@H](CC(C)C)NC(=O)[C@@H](Cc2ccccc2)NC(=O)[C@H](CCN)NC1=O)[C@@H](C)O (H-[dC](S(3-Methylbutyl))T[Dap][Dab][Dab][dF]L[Dab][Dab]T; lactam 4-C)	20.1	1 µg/mL (≈ 0.866 µM)	0.25 µg/mL (≈ 0.217 µM)	0.25 µg/mL (≈ 0.217 µM)	1 µg/mL (≈ 0.866 µM)					
CC(C)CCSSC[C@@H](N)C(=O)N[C@H](C(=O)N[C@@H](CCN)C(=O)N[C@H]1CCNC(=O)[C@H]([C@@H](C)O)NC(=O)[C@H](CCN)NC(=O)[C@H](CCN)NC(=O)[C@H](CC(C)C)NC(=O)[C@@H](Cc2ccccc2)NC(=O)[C@H](CCN)NC1=O)[C@@H](C)O [drawing 140] (H-[dC](S(3-Methylbutyl))T[Dab][Dab][Dab][dF]L[Dab][Dab]T; lactam 4-C)	9.8	1 µg/mL (≈ 0.856 µM)	0.5 µg/mL (≈ 0.428 µM)	0.5 µg/mL (≈ 0.428 µM)	1 µg/mL (≈ 0.856 µM)					
CC(C)CCSSC[C@@H](N)C(=O)N[C@H](C(=O)N[C@H](CO)C(=O)N[C@H]1CCNC(=O)[C@H]([C@@H](C)O)NC(=O)[C@H](CCN)NC(=O)[C@H](CCN)NC(=O)[C@H](CC(C)C)NC(=O)[C@@H](Cc2ccccc2)NC(=O)[C@H](CCN)NC1=O)[C@@H](C)O (H-[dC](S(3-Methylbutyl))T[dS][Dab][Dab][dF]L[Dab][Dab]T; lactam 4-C)	21.2	2 µg/mL (≈ 1.73 µM)	0.25 µg/mL (≈ 0.216 µM)	0.5 µg/mL (≈ 0.433 µM)	4 µg/mL (≈ 3.46 µM)					
CC(C)CCSSC[C@@H](N)C(=O)N[C@H](C(=O)N[C@H](CN)C(=O)N[C@H]1CCNC(=O)[C@H]([C@@H](C)O)NC(=O)[C@H](CCN)NC(=O)[C@H](CCN)NC(=O)[C@H](CC(C)C)NC(=O)[C@@H](Cc2ccccc2)NC(=O)[C@H](CCN)NC1=O)[C@@H](C)O (H-[dC](S(3-Methylbutyl))T[dDap][Dab][Dab][dF]L[Dab][Dab]T; lactam 4-C)	9.7	2 µg/mL (≈ 1.73 µM)	0.25 µg/mL (≈ 0.217 µM)	0.5 µg/mL (≈ 0.433 µM)	1 µg/mL (≈ 0.866 µM)					
Polymyxin B [reference compound]						1	1 µg/mL	0.25 µg/mL	0.25 µg/mL	1 µg/mL
CC(C)CCCCC[C@@H](N)C(=O)N[C@H](C(=O)N[C@@H](CN)C(=O)N[C@H]1CCNC(=O)[C@H]([C@@H](C)O)NC(=O)[C@H](CCN)NC(=O)[C@H](CCN)NC(=O)[C@H](CC(C)C)NC(=O)[C@@H](Cc2ccccc2)NC(=O)[C@H](CCN)NC1=O)[C@@H](C)O (H-[X1]T[Dap][Dab][Dab][dF]L[Dab][Dab]T; lactam 4-C)	7.8	1 µg/mL (≈ 0.894 µM)	0.25 µg/mL (≈ 0.224 µM)	0.25 µg/mL (≈ 0.224 µM)	1 µg/mL (≈ 0.894 µM)					
CC(C)C[C@@H]1NC(=O)[C@@H](Cc2ccccc2)NC(=O)[C@H](CCN)NC(=O)[C@@H](NC(=O)[C@@H](CO)NC(=O)[C@@H](NC(=O)[C@H](N)CSSCCC2CCCCC2)[C@@H](C)O)CCNC(=O)[C@H]([C@@H](C)O)NC(=O)[C@H](CCN)NC(=O)[C@H](CCN)NC1=O (H-[dC](S(2-cyclohexylethyl))T[dS][Dab][Dab][dF]L[Dab][Dab]T; lactam 4-C)	3.3	2 µg/mL (≈ 1.67 µM)	0.25 µg/mL (≈ 0.209 µM)	1 µg/mL (≈ 0.836 µM)	4 µg/mL (≈ 3.35 µM)					
CC(C)C[C@@H]1NC(=O)[C@@H](Cc2ccccc2)NC(=O)[C@H](CCN)NC(=O)[C@@H](NC(=O)[C@@H](CCN)NC(=O)[C@@H](NC(=O)[C@H](N)CSSCc2cccc(Cl)c2)[C@@H](C)O)CCNC(=O)[C@H]([C@@H](C)O)NC(=O)[C@H](CCN)NC(=O)[C@H](CCN)NC1=O (H-[dC](S(3-Cl-benzyl))T[dDab][Dab][Dab][dF]L[Dab][Dab]T; lactam 4-C)	7.0	2 µg/mL (≈ 1.64 µM)	0.5 µg/mL (≈ 0.409 µM)	1 µg/mL (≈ 0.818 µM)	2 µg/mL (≈ 1.64 µM)					
CC(C)CCSSC[C@@H](N)C(=O)N[C@H](C(=O)N[C@H](CCN)C(=O)N[C@H]1CCNC(=O)[C@H]([C@@H](C)O)NC(=O)[C@H](CCN)NC(=O)[C@H](CCN)NC(=O)[C@H](CC(C)C)NC(=O)[C@@H](Cc2ccccc2)NC(=O)[C@H](CCN)NC1=O)[C@@H](C)O (H-[dC](S(3-Methylbutyl))T[dDab][Dab][Dab][dF]L[Dab][Dab]T; lactam 4-C)	7.1	2 µg/mL (≈ 1.71 µM)	0.25 µg/mL (≈ 0.214 µM)	0.5 µg/mL (≈ 0.428 µM)	1 µg/mL (≈ 0.856 µM)					
CC(C)C[C@@H]1NC(=O)[C@@H](Cc2ccccc2)NC(=O)[C@H](CCN)NC(=O)[C@@H](NC(=O)CNC(=O)[C@@H](NC(=O)[C@H](N)CSSCc2cccc(Cl)c2)[C@@H](C)O)CCNC(=O)[C@H]([C@@H](C)O)NC(=O)[C@H](CCN)NC(=O)[C@H](CCN)NC1=O (H-[dC](S(3-Cl-benzyl))TG[Dab][Dab][dF]L[Dab][Dab]T; lactam 4-C)	7.4	2 µg/mL (≈ 1.7 µM)	1 µg/mL (≈ 0.848 µM)	1 µg/mL (≈ 0.848 µM)	4 µg/mL (≈ 3.39 µM)					
CC(C)C[C@@H]1NC(=O)[C@@H](Cc2ccccc2)NC(=O)[C@H](CCN)NC(=O)[C@@H](NC(=O)[C@@H](CO)NC(=O)[C@@H](NC(=O)[C@H](N)CSSCc2cccc(Cl)c2)[C@@H](C)O)CCNC(=O)[C@H]([C@@H](C)O)NC(=O)[C@H](CCN)NC(=O)[C@H](CCN)NC1=O (H-[dC](S(3-Cl-benzyl))T[dS][Dab][Dab][dF]L[Dab][Dab]T; lactam 4-C)	6.7	2 µg/mL (≈ 1.65 µM)	0.5 µg/mL (≈ 0.413 µM)	1 µg/mL (≈ 0.827 µM)	4 µg/mL (≈ 3.31 µM)					
